According to patent publication US20220315624A1, “THIOSTREPTON ANALOGS AND METHODS OF MAKING AND USING SAME” (YALE UNIVERSITY, priority 2019, published 2022):
In brackets after ≈: the same amount, converted by molar mass.

Assays:
[1] = Aqueous solubility analysis in MOPS buffer; type: physicochemical; details: aqueous 10 mM MOPS buffer, thermodynamic from solid; after 24 hours in 10 mM aqueous MOPS buffer, pH 7.2
Description: A 2 dram vial was loaded with ˜0.5 mg of a thiostrepton derivative and suspended in ˜4 mL of aqueous 10 mM MOPS buffer (pKa 7.2). The suspension was stirred vigorously for 24 h to ensure equilibration, then filtered through a […] centrifuge filtration unit. A 3.0 mL aliquot was concentrated, and the dried residue was diluted with 0.30 mL of 1:1 1,4-dioxane/H2O (10× original concentration necessitated by detection limits). The total UV absorbance (200-300 nm) was measured in triplicate by UPLC runs with a photodiode array detector. A calibration curve for each compound was created using data points from 3 trials each of concentrations in 1:1 1,4-dioxane/H2O ranging from […]. These concentrations were plotted against their respective average absorbances. The experimental concentration of each compound was calculated by dividing the found μg/mL value by the residue concentration factor of 10 to yield the actual solubility value.

E. coli ATCC 25922 = assay: MIC broth microdilution; type: cell-based; details: Escherichia coli, ATCC25922; E. coli ATCC 25922; CAMHB; read-out: MIC
Description: (§1) Twenty-four test agents were shipped to Micromyx and stored at −20° C. until assayed. The compounds were dissolved in 100% DMSO at 6.46 mg/mL prior to testing. Comparator drugs were supplied by Micromyx and were handled as described below:
(§2) The test organisms for the assay were recent clinical isolates or reference strains acquired from the American Type Culture Collection (ATCC; Manassas, Va.). Upon receipt, the isolates were streaked onto Trypticase Soy Agar II+5% sheep blood (TSAB). Colonies were harvested from the plates and a cell suspension was prepared in Trypticase Soy Broth containing cryoprotectant. Aliquots were then frozen at −80° C. Prior to the assay, the frozen seeds of all bacterial isolates to be tested were thawed and streaked for isolation onto TSAB (BD/BBL, Sparks, Md.; Lot No. 9011894), and were incubated overnight at 35° C.
(§3) The test medium for all isolates was cation-adjusted Mueller Hinton broth (CAMHB; BD/BBL; Lot No. 8190586). CAMHB (Cation Adjusted Mueller Hinton Broth) was supplemented with 3% (v/v) lysed horse blood (LHB; Hemostat, Dixon, Calif.; Lot No. 474990) for the testing of streptococci.
(§4) MIC values were determined using a broth microdilution method as recommended by CLSI. Automated liquid handlers (Multidrop 384, Labsystems, Helsinki, Finland; Biomek 2000 and Biomek F/X, Beckman Coulter, Fullerton Calif.) were used to conduct serial dilutions and make liquid transfers.
(§5) The wells of standard 96-well microdilution plates (Costar 3795, Corning Inc., Corning, N.Y.) were filled with 150 μL of the appropriate diluent in columns 2-12 on the Multidrop 384 (DMSO for the thiostrepton analogs, deionized H2O for vancomycin and ceftazidime). These plates were used to prepare the drug “mother plate” which provided the serial drug dilutions for the replicate “daughter plates”. The compounds (300 μL) were dispensed at 101× the highest concentration to be tested into the appropriate row of the “mother plate”. The Biomek 2000 was used to transfer 150 μL of each stock solution from the wells in Column 1 of the mother plate to make ten subsequent 2-fold serial dilutions. The wells of Column 12 contained no drug and served as the organism growth control wells. The daughter plates were loaded with 190 μL of test medium using the Multidrop 384.
(§6) The daughter plates were prepared on the Biomek F/X instrument which transferred […] of drug solution from each well of the mother plate to each corresponding well of each daughter plate in a single step. The wells of the daughter plates ultimately contained 190 μL of media, 2 μL of drug solution, and 10 μL of inoculum prepared as described below. The final concentration of DMSO (if used as a solvent) in the test well was 1%.
(§7) A standardized inoculum of each organism was prepared per CLSI methods. A suspension of organisms from a fresh plate was prepared in CAMHB to equal the turbidity of a 0.5 McFarland standard. The suspensions were diluted 1:20 in CAMHB, or in the case of streptococci CAMHB with LHB. The inoculum for each organism was dispensed into sterile reservoirs divided by length (Beckman Coulter), and the Biomek 2000 was used to inoculate the plates. Daughter plates were placed on the Biomek 2000 work surface reversed so that inoculation took place from low to high drug concentration. The Biomek 2000 delivered 10 μL of standardized inoculum into each well. These dilutions yielded a final cell concentration in the daughter plates of approximately 5.0×10^5 CFU/mL.
(§8) Plates were stacked 3 high, covered with a lid on the top plate, placed in plastic bags, and incubated at 35° C. for 16-20 hr for all organisms except streptococci which were incubated for 20-24 hr. Following incubation, the microplates were removed from the incubator and viewed from the bottom using a plate viewer. The MIC was read and recorded as the lowest concentration of drug that inhibited visible growth of the organism. […]

[2] = system: E. faecalis ATCC 29212 VSE; assay: MIC broth microdilution; type: cell-based; details: Enterococcus faecalis, ATCC29212; E. faecalis ATCC 29212 VSE; CAMHB; read-out: MIC
Description: as §1, §2, §3, §4, §5, §6, §7, §8

E. faecalis MMX 486 VRE = assay: MIC broth microdilution; type: cell-based; details: Enterococcus faecalis; E. faecalis MMX 486 VRE; CAMHB; read-out: MIC
Description: as §1, §2, §3, §4, §5, §6, §7, §8

E. faecium MMX 485 VRE = assay: MIC broth microdilution; type: cell-based; details: Enterococcus faecium; E. faecium MMX 485 VRE; CAMHB; read-out: MIC
Description: as §1, §2, §3, §4, §5, §6, §7, §8

E. faecium MMX 708 VSE = assay: MIC broth microdilution; type: cell-based; details: Enterococcus faecium, MMX708VSE; E. faecium MMX 708 VSE; CAMHB; read-out: MIC
Description: as §1, §2, §3, §4, §5, §6, §7, §8

[3] = system: S. aureus ATCC 29213 MSSA; assay: MIC broth microdilution; type: cell-based; details: Staphylococcus aureus; S. aureus ATCC 29213 MSSA; CAMHB; read-out: MIC
Description: as §1, §2, §3, §4, §5, §6, §7, §8

S. aureus MMX 8088 MRSA = assay: MIC broth microdilution; type: cell-based; details: Staphylococcus aureus; S. aureus MMX 8088 MRSA; CAMHB; read-out: MIC
Description: as §1, §2, §3, §4, §5, §6, §7, §8

[4] = system: S. pneumoniae ATCC 49619 PISP; assay: MIC broth microdilution; type: cell-based; details: Streptococcus pneumoniae, ATCC49619, 20 h; S. pneumoniae ATCC 49619 PISP; CAMHB with 3% lysed horse blood; read-out: MIC
Description: as §1, §2, §3, §4, §5, §6, §7, §8

S. pyogenes ATCC 19615 = assay: MIC broth microdilution; type: cell-based; details: Streptococcus pyogenes, ATCC19615, 20 h; S. pyogenes ATCC 19615; CAMHB with 3% lysed horse blood; read-out: MIC
Description: as §1, §2, §3, §4, §5, §6, §7, §8

S. aureus isolates = assay: MIC broth microdilution, S. aureus isolates; type: cell-based; details: Staphylococcus aureus; across MSSA and MRSA isolates; read-out: MIC values against S. aureus isolates
Description: as §1, §2, §3, §4, §5, §6, §7, §8

[5] = system: E. faecalis and E. faecium; assay: MIC broth microdilution, summary over enterococci; type: cell-based; details: across the evaluated enterococci, VSE and VRE
Description: as §1, §2, §3, §4, §5, §6, §7, §8

[6] = Un-inoculated solubility control plate (drug precipitation); type: physicochemical
Gram-positive cocci = assay: MIC broth microdilution, overall summary; type: cell-based; details: summary of MIC testing
Description: as §1, §2, §3, §4, §5
The daughter plates were prepared on the Biomek F/X instrument which transferred […] of drug solution from each well of the mother plate to each corresponding well of each daughter plate in a single step. […]
as §8, with “Following incubation, the microplates were removed from the incubator and viewed from the bottom using a plate viewer.” left out

Row | solubility at 24 h [1] | MIC (E. coli ATCC 25922) | MIC [2] | MIC (E. faecalis MMX 486 VRE) | MIC (E. faecium MMX 485 VRE) | MIC (E. faecium MMX 708 VSE) | MIC [3] | MIC (S. aureus MMX 8088 MRSA) | MIC [4] | MIC (S. pyogenes ATCC 19615) | MIC (S. aureus isolates) | MIC values against E. faecalis and E. faecium [5] | MIC ([5]; read-out: MIC values against E. faecalis and E. faecium) | Precipitation in CAMHB ([6]; at 64 μg/mL in CAMHB) | Precipitation in CAMHB in LHB ([6]; at 64 μg/mL in CAMHB in LHB) | Structure (SMILES) | Activity among the evaluated analogs / against evaluated Gram-positive cocci (summary in words) (Gram-positive cocci)
1 | < 1 µg/mL | > 64 µg/mL | 0.5 µg/mL (≈ 0.272 µM) | 0.25 µg/mL (≈ 0.136 µM) | 0.25 µg/mL (≈ 0.136 µM) | 0.25 µg/mL (≈ 0.136 µM) | 0.5 µg/mL (≈ 0.272 µM) | 0.5 µg/mL (≈ 0.272 µM) | < 1 ng/mL | < 1 ng/mL | 0.25 to 0.5 µg/mL (≈ 0.136 to 0.272 µM) | 0.5 µg/mL (≈ 0.272 µM) | 0.25 µg/mL (≈ 0.136 µM) | distinct precipitation | – | C=C(NC(=O)c1csc(C2=N[C@@H]3c4csc(n4)[C@H]4NC(=O)c5csc(n5)[C@H]([C@](C)(O)[C@@H](C)O)NC(=O)C5CSC(=N5)/C(=C/C)NC(=O)[C@H]([C@@H](C)O)NC(=O)c5csc(n5)[C@]3(CC2)NC(=O)[C@H](C)NC(=O)C(=C)NC(=O)[C@H](C)NC(=O)[C@H]([C@@H](C)CC)N[C@@H]2C=Cc3c([C@H](C)O)cc(nc3[C@H]2O)C(=O)O[C@@H]4C)n1)C(=O)NC(=CNC(=O)c1cccc(/C=N/OC)c1)C(N)=O [RJS-11] | most activity
2 | 1.4 µg/mL (≈ 0.748 µM) | > 64 µg/mL | 0.5 µg/mL (≈ 0.267 µM) | 0.5 µg/mL (≈ 0.267 µM) | 0.5 µg/mL (≈ 0.267 µM) | 1 µg/mL (≈ 0.534 µM) | 0.5 µg/mL (≈ 0.267 µM) | 0.5 µg/mL (≈ 0.267 µM) | 4 ng/mL (≈ 0.00214 µM) | 4 ng/mL (≈ 0.00214 µM) | 0.25 to 0.5 µg/mL (≈ 0.134 to 0.267 µM) | – | – | – | – | C=C(NC(=O)c1csc(C2=N[C@@H]3c4csc(n4)[C@H]4NC(=O)c5csc(n5)[C@H]([C@](C)(O)[C@@H](C)O)NC(=O)C5CSC(=N5)/C(=C/C)NC(=O)[C@H]([C@@H](C)O)NC(=O)c5csc(n5)[C@]3(CC2)NC(=O)[C@H](C)NC(=O)C(=C)NC(=O)[C@H](C)NC(=O)[C@H]([C@@H](C)CC)N[C@@H]2C=Cc3c([C@H](C)O)cc(nc3[C@H]2O)C(=O)O[C@@H]4C)n1)C(=O)NC(=CNC(=O)c1cccc(/C=N/OCCO)c1)C(N)=O [RJS-14] | –
3 | < 1 µg/mL | > 64 µg/mL | 1 µg/mL (≈ 0.547 µM) | 0.5 µg/mL (≈ 0.274 µM) | 0.5 µg/mL (≈ 0.274 µM) | 0.5 µg/mL (≈ 0.274 µM) | 0.5 µg/mL (≈ 0.274 µM) | 0.5 µg/mL (≈ 0.274 µM) | 2 ng/mL (≈ 0.00109 µM) | 4 ng/mL (≈ 0.00219 µM) | 0.25 to 0.5 µg/mL (≈ 0.137 to 0.274 µM) | – | – | – | distinct precipitation | C=C(NC(=O)c1csc(C2=N[C@@H]3c4csc(n4)[C@H]4NC(=O)c5csc(n5)[C@H]([C@](C)(O)[C@@H](C)O)NC(=O)C5CSC(=N5)/C(=C/C)NC(=O)[C@H]([C@@H](C)O)NC(=O)c5csc(n5)[C@]3(CC2)NC(=O)[C@H](C)NC(=O)C(=C)NC(=O)[C@H](C)NC(=O)[C@H]([C@@H](C)CC)N[C@@H]2C=Cc3c([C@H](C)O)cc(nc3[C@H]2O)C(=O)O[C@@H]4C)n1)C(=O)NC(=CNC(=O)c1cccc(/C=N/O)c1)C(N)=O [RJS-17] | –
